Values of other authors as cited in patent US20020028808A1, “Use of potassium channel agonists for the treatment of cancer” (priority 2000, published 2002).
Like-named read-outs stand apart in the source and are kept apart here.

What was measured:
[1] = tested on: adipose tissue of Zucker rats
[2] = tested on: patients suffering from insulinoma and nesidioblastosis
[3] = target: T1, KATP-channels on pancreatic beta-cells (Homo sapiens, UniProt Q09428+Q14654); settings: by activation of KATP-channels
T1 construct: KATP-channels on pancreatic beta-cells; host or cells: pancreatic beta-cells

[4] = tested on: healthy individuals

T1 sequence (Q09428 whole entry): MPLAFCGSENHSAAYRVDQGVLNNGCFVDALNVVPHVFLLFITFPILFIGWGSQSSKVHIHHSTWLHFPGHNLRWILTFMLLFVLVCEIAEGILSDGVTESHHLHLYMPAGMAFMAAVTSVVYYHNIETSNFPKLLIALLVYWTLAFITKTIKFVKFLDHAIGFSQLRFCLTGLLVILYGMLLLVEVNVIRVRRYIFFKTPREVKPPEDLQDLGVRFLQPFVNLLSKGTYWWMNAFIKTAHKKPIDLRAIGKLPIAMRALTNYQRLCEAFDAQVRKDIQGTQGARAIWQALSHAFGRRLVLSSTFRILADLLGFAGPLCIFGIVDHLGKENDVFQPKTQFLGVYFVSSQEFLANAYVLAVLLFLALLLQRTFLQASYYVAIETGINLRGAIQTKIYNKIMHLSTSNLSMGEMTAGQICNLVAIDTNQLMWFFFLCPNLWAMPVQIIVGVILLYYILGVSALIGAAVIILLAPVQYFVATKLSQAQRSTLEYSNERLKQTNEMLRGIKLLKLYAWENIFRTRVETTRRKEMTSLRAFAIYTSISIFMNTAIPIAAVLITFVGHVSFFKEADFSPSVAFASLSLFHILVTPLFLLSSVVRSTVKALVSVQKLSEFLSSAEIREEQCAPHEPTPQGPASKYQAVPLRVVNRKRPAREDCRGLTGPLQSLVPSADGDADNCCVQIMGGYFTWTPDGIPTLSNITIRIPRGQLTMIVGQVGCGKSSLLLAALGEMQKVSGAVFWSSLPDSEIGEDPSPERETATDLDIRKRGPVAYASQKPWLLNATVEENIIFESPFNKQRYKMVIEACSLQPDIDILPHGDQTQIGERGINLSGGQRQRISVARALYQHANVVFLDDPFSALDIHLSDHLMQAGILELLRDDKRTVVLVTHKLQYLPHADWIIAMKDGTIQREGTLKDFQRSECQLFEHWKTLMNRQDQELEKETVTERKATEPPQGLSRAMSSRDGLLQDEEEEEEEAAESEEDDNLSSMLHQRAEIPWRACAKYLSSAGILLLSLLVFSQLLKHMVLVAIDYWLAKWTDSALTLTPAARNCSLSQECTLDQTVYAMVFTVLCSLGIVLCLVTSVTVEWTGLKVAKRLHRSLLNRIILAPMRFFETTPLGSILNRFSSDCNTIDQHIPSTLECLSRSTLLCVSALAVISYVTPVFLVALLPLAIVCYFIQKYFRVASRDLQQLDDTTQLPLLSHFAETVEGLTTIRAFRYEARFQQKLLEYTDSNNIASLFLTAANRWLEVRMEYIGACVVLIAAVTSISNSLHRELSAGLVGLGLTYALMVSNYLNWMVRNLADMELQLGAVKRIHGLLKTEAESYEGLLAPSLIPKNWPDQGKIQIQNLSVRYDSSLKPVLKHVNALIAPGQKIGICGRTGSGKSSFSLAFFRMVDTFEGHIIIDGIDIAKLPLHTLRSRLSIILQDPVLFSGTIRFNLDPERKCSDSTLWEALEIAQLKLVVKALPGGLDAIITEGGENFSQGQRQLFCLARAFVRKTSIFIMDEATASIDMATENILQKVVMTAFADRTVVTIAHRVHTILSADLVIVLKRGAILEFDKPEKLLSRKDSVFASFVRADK
T1 sequence (Q14654 whole entry): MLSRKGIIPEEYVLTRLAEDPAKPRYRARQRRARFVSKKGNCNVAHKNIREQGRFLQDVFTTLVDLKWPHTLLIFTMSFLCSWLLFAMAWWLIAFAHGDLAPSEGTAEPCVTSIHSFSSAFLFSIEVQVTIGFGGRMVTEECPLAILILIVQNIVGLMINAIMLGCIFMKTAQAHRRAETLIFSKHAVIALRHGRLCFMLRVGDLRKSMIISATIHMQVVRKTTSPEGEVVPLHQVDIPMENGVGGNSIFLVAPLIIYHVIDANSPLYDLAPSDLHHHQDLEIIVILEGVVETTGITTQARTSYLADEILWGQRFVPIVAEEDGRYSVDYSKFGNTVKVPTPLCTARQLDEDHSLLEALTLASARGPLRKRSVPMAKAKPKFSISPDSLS

insulin release [3]: inhibit insulin release
Structure (SMILES): CC1=Nc2ccc(Cl)cc2S(=O)(=O)N1 [diazoxide, 7-chloro-3-methyl-2H-1,2,4-benzothiadiazine 1,1-dioxide]
leptin and lipid metabolising enzymes [1]: down-regulate leptin and lipid metabolising enzymes | abnormal hyperinsulinaemia ([2]; nesidioblastosis (PHHI, persistent hyperinsulinaemia and hypoglycemia of infancy)): ameliorates the abnormal hyperinsulinaemia | abnormal hyperinsulinaemia ([2]; patients suffering from insulinoma): ameliorates the abnormal hyperinsulinaemia | glucose stimulated insulin release [4]: reduces glucose stimulated insulin release
